*1 amine or outer side, *2 acyl side, *3 side chain or, on linkers, in order; H or OH if unused. Where a SMILES comes first, the peptide text is derived from it. Bridges are numbered along the chain shown (N, C = ends). [ ]: non-standard residue; d: D form. Trp(1-CH2CO) = O=C([C@H](Cc1cn(CC(=O)[*:3])c2ccccc12)N[*:1])[*:2]; X22 = O=C([C@H](CNCc1c(B(O)O[*:3])ccc(Cl)c1F)N[*:1])[*:2]; Trp(1-CH2COOH) = N[C@@H](Cc1cn(CC(=O)O)c2ccccc12)C(=O)O; X21 = Cc1ccc(B(O)O[*:3])c(CNC[C@H](N[*:1])C(=O)[*:2])c1; X19 = O=C([C@H](CNCc1cccc(B(O)O[*:3])c1F)N[*:1])[*:2]; X3 = O=C([C@H](CNCc1ccc(B(O)O[*:3])cc1F)N[*:1])[*:2]; X1 = Cc1cc(CNC[C@H](N[*:1])C(=O)[*:2])cc(C)c1B(O)O; Hyp = O=C(O)[C@@H]1C[C@@H](O)CN1; NMeNle = CCCC[C@H](NC)C(=O)O; NMeA = CN[C@@H](C)C(=O)O; Dab = NCC[C@H](N)C(=O)O

For the experiment, the target named is PD-1/PD-L1 (Homo sapiens (Human), UniProt Q9NZQ7). Nature of the experiment: PD-1/PD-L1 Homogenous Time-Resolved Fluorescence (HTRF) binding assay. To be noted: PD-L1-His 10 nM, PD-1-Ig 20 nM; read-out: HTRF IC50. From the text:
Methods for Testing the Ability of Macrocyclic Peptides to Compete for the Binding of PD-1 to PD-L1 Using Homogenous Time-Resolved Fluorescence (HTRF) Binding Assays
The ability of the compounds of formula (I) to bind to PD-L1 was investigated using a PD-1/PD-L1 Homogenous Time-Resolved Fluorescence (HTRF) binding assay.
Homogenous Time-Resolved Fluorescence (HTRF) Binding Assay
The interaction of PD-1 and PD-L1 can be assessed using soluble, purified preparations of the extracellular domains of the two proteins. The PD-1 and PD-L1 protein extracellular domains were expressed as fusion proteins with detection tags, for PD-1, the tag was the Fc portion of Immunoglobulin (PD-1-Ig) and for PD-L1 it was the 6 histidine motif (PD-L1-His). All binding studies were performed in an HTRF assay buffer consisting of dPBS supplemented with 0.1% […] bovine serum albumin and 0.05% (v/v) Tween-20. For the h/PD-L1-His binding assay, inhibitors were pre-incubated with PD-L1-His (10 nM final) for 15 m in 4 μl of assay buffer, followed by addition of PD-1-Ig (20 nM final) in 1 μl of assay buffer and further incubation for 15 m. HTRF detection was achieved using europium cryptate-labeled anti-Ig (1 nM final) and allophycocyanin (APC) labeled anti-His (20 nM final). Antibodies were diluted in HTRF detection buffer and 5 μl was dispensed on top of the binding reaction. The reaction mixture was allowed to equilibrate for 30 minutes and the resulting signal (665 nm/620 nm ratio) was obtained using an EnVision fluorometer. Additional binding assays were established between the human proteins PD-1-Ig/PD-L2-His (20 & 5 nM, respectively) and CD80-His/PD-L1-Ig (100 & 10 nM, respectively).
Recombinant Proteins: Human PD-1 (25-167) with a C-terminal human Fc domain of immunoglobulin G (Ig) epitope tag [hPD-1 (25-167)-3S-IG] and human PD-L1 (18-239) with a C-terminal His epitope tag [hPD-L1(18-239)-TVMV-His] were expressed in HEK293T cells and purified sequentially by ProteinA affinity chromatography and size exclusion chromatography. Human PD-L2-His and CD80-His was obtained through commercial sources.
Table 1 lists the IC50 values for representative examples of this disclosure measured in the PD-1/PD-L1 Homogenous Time-Resolved Fluorescence (HTRF) binding assay.

Sequence of PD-1/PD-L1 (Q9NZQ7 18-239): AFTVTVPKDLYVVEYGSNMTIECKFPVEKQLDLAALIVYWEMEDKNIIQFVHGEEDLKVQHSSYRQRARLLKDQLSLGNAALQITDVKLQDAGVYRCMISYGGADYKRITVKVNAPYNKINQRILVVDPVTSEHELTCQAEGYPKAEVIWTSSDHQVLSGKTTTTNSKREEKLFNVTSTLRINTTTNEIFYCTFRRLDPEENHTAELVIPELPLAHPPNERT

With `CCCC[C@H]1C(=O)N(C)[C@@H](CCCC)C(=O)N[C@@H](CC(C)C)C(=O)N[C@H](C(=O)NCC(N)=O)CSCC(=O)N[C@@H](Cc2ccc(O)cc2)C(=O)N(C)[C@@H](C)C(=O)N[C@@H](CC(N)=O)C(=O)N2CCC[C@H]2C(=O)N[C@H]2CNCc3ccc(cc3F)B(O)OC(=O)Cn3cc(c4ccccc43)C[C@H](NC(=O)[C@H](CCN)NC(=O)[C@H](Cc3c[nH]c4ccccc34)NC(=O)[C@@H]3C[C@@H](O)CN3C(=O)[C@H](CC(C)C)NC2=O)C(=O)N1C` [Example 1013] ({CH2CO}-Y[NMeA]NP[X3]L[Hyp]W[Dab][Trp(1-CH2CO)][NMeNle][NMeNle]LCG-NH2; ester 5-10; thioether N-14), the IC50 is 3.7 nM.

`CCCC[C@H]1C(=O)N(C)[C@@H](CCCC)C(=O)N[C@@H](CC(C)C)C(=O)N[C@H](C(=O)NCC(N)=O)CSCC(=O)N[C@@H](Cc2ccc(O)cc2)C(=O)N(C)[C@@H](C)C(=O)N[C@@H](CC(N)=O)C(=O)N2CCC[C@H]2C(=O)N[C@@H](CNCc2cc(C)c(B(O)O)c(C)c2)C(=O)N[C@@H](CC(C)C)C(=O)N2C[C@H](O)C[C@H]2C(=O)N[C@@H](Cc2c[nH]c3ccccc23)C(=O)N[C@@H](CCN)C(=O)N[C@@H](Cc2cn(CC(=O)O)c3ccccc23)C(=O)N1C` [Example 1014] ({CH2CO}-Y[NMeA]NP[X1]L[Hyp]W[Dab][Trp(1-CH2COOH)][NMeNle][NMeNle]LCG-NH2; thioether N-14): the IC50 turned out to be 8.2 nM.

On to `CCCC[C@H]1C(=O)N(C)[C@@H](CCCC)C(=O)N[C@@H](CC(C)C)C(=O)N[C@H](C(=O)NCC(N)=O)CSCC(=O)N[C@@H](Cc2ccc(O)cc2)C(=O)N(C)[C@@H](C)C(=O)N[C@@H](CC(N)=O)C(=O)N2CCC[C@H]2C(=O)N[C@H]2CNCc3cccc(c3F)B(O)OC(=O)Cn3cc(c4ccccc43)C[C@H](NC(=O)[C@H](CCN)NC(=O)[C@H](Cc3c[nH]c4ccccc34)NC(=O)[C@@H]3C[C@@H](O)CN3C(=O)[C@H](CC(C)C)NC2=O)C(=O)N1C` [Example 1015] ({CH2CO}-Y[NMeA]NP[X19]L[Hyp]W[Dab][Trp(1-CH2CO)][NMeNle][NMeNle]LCG-NH2; ester 5-10; thioether N-14), for which the IC50 was 6.7 nM.

As to `CCCC[C@H]1C(=O)N(C)[C@@H](CCCC)C(=O)N[C@@H](CC(C)C)C(=O)N[C@H](C(=O)NCC(N)=O)CSCC(=O)N[C@@H](Cc2ccc(O)cc2)C(=O)N(C)[C@@H](C)C(=O)N[C@@H](CC(N)=O)C(=O)N2CCC[C@H]2C(=O)N[C@H]2CNCc3cc(C)ccc3B(O)OC(=O)Cn3cc(c4ccccc43)C[C@H](NC(=O)[C@H](CCN)NC(=O)[C@H](Cc3c[nH]c4ccccc34)NC(=O)[C@@H]3C[C@@H](O)CN3C(=O)[C@H](CC(C)C)NC2=O)C(=O)N1C` [Example 1016] ({CH2CO}-Y[NMeA]NP[X21]L[Hyp]W[Dab][Trp(1-CH2CO)][NMeNle][NMeNle]LCG-NH2; ester 5-10; thioether N-14), the IC50 amounted to 8.3 nM.

Regarding `CCCC[C@H]1C(=O)N(C)[C@@H](CCCC)C(=O)N[C@@H](CC(C)C)C(=O)N[C@H](C(=O)NCC(N)=O)CSCC(=O)N[C@@H](Cc2ccc(O)cc2)C(=O)N(C)[C@@H](C)C(=O)N[C@@H](CC(N)=O)C(=O)N2CCC[C@H]2C(=O)N[C@H]2CNCc3c(ccc(Cl)c3F)B(O)OC(=O)Cn3cc(c4ccccc43)C[C@H](NC(=O)[C@H](CCN)NC(=O)[C@H](Cc3c[nH]c4ccccc34)NC(=O)[C@@H]3C[C@@H](O)CN3C(=O)[C@H](CC(C)C)NC2=O)C(=O)N1C` [Example 1017] ({CH2CO}-Y[NMeA]NP[X22]L[Hyp]W[Dab][Trp(1-CH2CO)][NMeNle][NMeNle]LCG-NH2; ester 5-10; thioether N-14), the 50% inhibitory concentration (IC50) amounted to 7.1 nM.

For the origin of these results see patent publication US20230365627A1, “MACROCYCLIC PEPTIDE BORONATE IMMUNOMODULATORS” (Bristol-Myers Squibb Company, priority 2020, published 2023).
